pIC50: −log10 of the molar value. Activity calls are given as the source filed them. The calls are words filed in the database; no cut-off is given here.
How the values were obtained:
CAPAN-1 = experiment: Antiproliferative activity against human CAPAN-1 cells assessed as reduction in cell viability measured after 72 hrs; assay type: functional, cell-based; conditions: CAPAN-1, 72 h
[1] = biological target: Fibroblast growth factor receptor 4 (Homo sapiens, UniProt P22455); experiment: Inhibition of FGFR4 (unknown origin) using Poly (Glu,Tyr) 4:1 as substrate incubated for 60 mins in presence of ATP by ELISA analysis
Sequence of Fibroblast growth factor receptor 4 (P22455 whole entry): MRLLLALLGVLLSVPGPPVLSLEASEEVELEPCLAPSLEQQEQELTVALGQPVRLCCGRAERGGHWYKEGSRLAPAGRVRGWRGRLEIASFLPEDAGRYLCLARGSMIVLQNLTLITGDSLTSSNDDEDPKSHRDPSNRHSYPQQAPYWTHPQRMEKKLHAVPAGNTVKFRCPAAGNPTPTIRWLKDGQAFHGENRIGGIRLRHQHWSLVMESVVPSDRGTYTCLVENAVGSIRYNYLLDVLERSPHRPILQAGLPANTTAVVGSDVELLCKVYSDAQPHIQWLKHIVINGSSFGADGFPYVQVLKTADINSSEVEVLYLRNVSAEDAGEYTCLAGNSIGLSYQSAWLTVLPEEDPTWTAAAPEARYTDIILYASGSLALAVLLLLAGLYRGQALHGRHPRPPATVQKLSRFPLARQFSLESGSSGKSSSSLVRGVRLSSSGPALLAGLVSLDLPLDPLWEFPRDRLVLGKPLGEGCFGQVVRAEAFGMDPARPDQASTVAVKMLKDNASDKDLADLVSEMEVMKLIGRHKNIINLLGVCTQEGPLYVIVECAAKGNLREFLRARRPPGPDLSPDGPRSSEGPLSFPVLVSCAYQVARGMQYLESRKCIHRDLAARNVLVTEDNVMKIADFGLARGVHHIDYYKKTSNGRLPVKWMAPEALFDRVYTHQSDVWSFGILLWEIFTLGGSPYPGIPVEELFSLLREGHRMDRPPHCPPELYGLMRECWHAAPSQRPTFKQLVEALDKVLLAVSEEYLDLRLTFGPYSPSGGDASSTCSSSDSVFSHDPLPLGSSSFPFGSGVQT

NCI-H2286 = experiment: Antiproliferative activity against human NCI-H2286 cells assessed as reduction in cell viability measured after 72 hrs; assay type: functional, cell-based; conditions: NCI-H2286, 72 h
[2] = Tmax in CD-1 mouse at 3 mg/kg, po measured after 24 hrs by LC-MS/MS analysis; assay type: ADME, organism-based; conditions: in vivo
A549 = experiment: Antiproliferative activity against human A549 cells assessed as reduction in cell viability measured after 72 hrs; assay type: functional, cell-based; conditions: A549, 72 h
NCI-H1581 = experiment: Antitumor activity against human NCI-H1581 cells xenografted in nude mouse assessed as tumor growth inhibition at 400 mg/kg, po administered once daily for 11 days by microcaliper analysis; assay type: functional, organism-based; conditions: time 11.0 day
PC-9 = experiment: Antiproliferative activity against human PC-9 cells assessed as reduction in cell viability measured after 72 hrs; assay type: functional, cell-based; conditions: PC-9, 72 h
[3] = Half life in CD-1 mouse at 1 mg/kg, iv measured after 24 hrs by LC-MS/MS analysis; assay type: ADME, organism-based; conditions: in vivo
[4] = Half life in CD-1 mouse at 3 mg/kg, po measured after 24 hrs by LC-MS/MS analysis; assay type: ADME, organism-based; conditions: in vivo
NCI-H1666 = experiment: Antiproliferative activity against human NCI-H1666 cells assessed as reduction in cell viability measured after 72 hrs; assay type: functional, cell-based; conditions: NCI-H1666, 72 h
[5] = AUC (0 to t) in CD-1 mouse at 3 mg/kg, po measured after 24 hrs by LC-MS/MS analysis; assay type: ADME, organism-based; set-up: time 24 hrs, dose 3 mg/kg, route po; conditions: in vivo
[6] = biological target: T1, Fibroblast growth factor receptor (Homo sapiens) (UniProt P22607+P11362+P22455+P21802); experiment: Inhibition of FGFR phosphorylation in human SNU-16 cells at 5 nM measured after 24 hrs; assay type: cell-based
T1 sequence (P11362 whole entry, looked up): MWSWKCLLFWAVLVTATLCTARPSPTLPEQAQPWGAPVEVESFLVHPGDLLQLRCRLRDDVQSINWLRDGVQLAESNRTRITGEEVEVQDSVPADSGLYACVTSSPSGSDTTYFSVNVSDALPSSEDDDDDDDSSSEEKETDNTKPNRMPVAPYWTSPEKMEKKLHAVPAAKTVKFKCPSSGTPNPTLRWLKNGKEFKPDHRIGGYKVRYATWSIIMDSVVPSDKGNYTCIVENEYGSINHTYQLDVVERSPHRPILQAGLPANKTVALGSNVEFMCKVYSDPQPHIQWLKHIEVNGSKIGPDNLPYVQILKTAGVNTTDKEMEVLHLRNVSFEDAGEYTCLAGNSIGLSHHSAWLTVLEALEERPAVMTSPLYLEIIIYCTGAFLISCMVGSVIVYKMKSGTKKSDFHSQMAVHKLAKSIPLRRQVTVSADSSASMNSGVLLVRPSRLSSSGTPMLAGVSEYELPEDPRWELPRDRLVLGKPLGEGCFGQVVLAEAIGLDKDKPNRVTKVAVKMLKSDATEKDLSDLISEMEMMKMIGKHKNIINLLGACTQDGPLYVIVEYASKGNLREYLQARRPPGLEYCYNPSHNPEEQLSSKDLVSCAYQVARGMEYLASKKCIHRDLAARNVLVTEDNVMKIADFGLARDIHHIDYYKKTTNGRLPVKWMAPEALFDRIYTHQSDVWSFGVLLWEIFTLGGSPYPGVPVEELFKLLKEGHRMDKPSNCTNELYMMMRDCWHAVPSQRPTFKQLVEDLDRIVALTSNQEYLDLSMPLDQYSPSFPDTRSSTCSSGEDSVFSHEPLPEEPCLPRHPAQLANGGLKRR
T1 sequence (P21802 whole entry, looked up): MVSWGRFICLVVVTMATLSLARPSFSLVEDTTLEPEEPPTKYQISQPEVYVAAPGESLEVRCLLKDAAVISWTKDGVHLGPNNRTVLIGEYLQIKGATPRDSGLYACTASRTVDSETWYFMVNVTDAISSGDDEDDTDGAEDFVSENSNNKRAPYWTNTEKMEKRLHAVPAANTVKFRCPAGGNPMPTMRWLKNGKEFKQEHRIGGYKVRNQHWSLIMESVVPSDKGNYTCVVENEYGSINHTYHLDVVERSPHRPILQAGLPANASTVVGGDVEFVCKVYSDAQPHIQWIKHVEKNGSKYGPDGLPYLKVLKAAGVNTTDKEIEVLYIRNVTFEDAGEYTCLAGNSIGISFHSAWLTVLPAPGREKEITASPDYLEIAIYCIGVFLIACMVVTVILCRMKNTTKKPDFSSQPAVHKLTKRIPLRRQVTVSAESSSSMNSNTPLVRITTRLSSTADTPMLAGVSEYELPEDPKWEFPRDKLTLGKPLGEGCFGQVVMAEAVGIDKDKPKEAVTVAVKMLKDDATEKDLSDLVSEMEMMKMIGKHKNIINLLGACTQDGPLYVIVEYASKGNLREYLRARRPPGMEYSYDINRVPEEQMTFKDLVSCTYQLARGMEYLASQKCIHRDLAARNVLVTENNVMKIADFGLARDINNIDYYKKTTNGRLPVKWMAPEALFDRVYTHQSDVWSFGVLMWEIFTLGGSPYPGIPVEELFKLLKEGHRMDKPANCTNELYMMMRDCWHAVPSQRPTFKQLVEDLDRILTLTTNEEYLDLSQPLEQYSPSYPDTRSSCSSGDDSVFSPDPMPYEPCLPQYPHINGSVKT
T1 sequence (P22455 whole entry, looked up): as the sequence (P22455 whole entry) above
T1 sequence (P22607 whole entry, looked up): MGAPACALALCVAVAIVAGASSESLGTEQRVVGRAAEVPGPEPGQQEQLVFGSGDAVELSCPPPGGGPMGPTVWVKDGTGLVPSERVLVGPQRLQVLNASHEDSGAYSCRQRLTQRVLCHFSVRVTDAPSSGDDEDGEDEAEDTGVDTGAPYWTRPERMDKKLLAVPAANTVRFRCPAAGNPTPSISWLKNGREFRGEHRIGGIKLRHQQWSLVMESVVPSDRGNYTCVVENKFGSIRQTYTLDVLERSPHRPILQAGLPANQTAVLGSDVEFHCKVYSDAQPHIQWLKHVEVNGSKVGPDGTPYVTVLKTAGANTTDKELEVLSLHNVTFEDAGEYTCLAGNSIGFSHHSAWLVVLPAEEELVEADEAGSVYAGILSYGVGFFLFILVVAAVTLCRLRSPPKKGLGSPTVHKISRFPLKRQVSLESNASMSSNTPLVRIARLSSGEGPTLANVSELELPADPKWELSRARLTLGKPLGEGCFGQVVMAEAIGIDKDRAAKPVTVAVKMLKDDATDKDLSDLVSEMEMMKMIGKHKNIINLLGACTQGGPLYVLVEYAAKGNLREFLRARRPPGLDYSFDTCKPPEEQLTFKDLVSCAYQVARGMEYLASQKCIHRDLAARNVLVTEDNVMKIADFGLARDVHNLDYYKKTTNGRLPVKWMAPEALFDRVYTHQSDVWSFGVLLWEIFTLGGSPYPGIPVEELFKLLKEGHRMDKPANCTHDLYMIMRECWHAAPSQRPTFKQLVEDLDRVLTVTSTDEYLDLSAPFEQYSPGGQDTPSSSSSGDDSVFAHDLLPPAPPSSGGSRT

[7] = AUC (0 to t) in CD-1 mouse at 1 mg/kg, iv measured after 24 hrs by LC-MS/MS analysis; assay type: ADME, organism-based; set-up: time 24 hrs, dose 1 mg/kg, route iv; conditions: in vivo
Hs746T = experiment: Antiproliferative activity against human Hs746T cells assessed as reduction in cell viability measured after 72 hrs; assay type: functional, cell-based
[8] = biological target: T1, Fibroblast growth factor receptor (Homo sapiens); experiment: Inhibition of FGFR phosphorylation in human SNU-16 cells at 5 nM measured after 12 hrs; assay type: cell-based
[9] = biological target: Fibroblast growth factor receptor 1 (Homo sapiens, UniProt P11362, V561M); experiment: Inhibition of human recombinant FGFR1 V561M mutant (456 to 765 residues) using GGEEEEYFELVKK as substrate incubated for 40 mins presence of [gamma-33P]-ATP by radiometric based scintillation counter assay
Sequence of Fibroblast growth factor receptor 1 (Homo sapiens, UniProt P11362, V561M) (P11362 22-822 V561M limits assumed): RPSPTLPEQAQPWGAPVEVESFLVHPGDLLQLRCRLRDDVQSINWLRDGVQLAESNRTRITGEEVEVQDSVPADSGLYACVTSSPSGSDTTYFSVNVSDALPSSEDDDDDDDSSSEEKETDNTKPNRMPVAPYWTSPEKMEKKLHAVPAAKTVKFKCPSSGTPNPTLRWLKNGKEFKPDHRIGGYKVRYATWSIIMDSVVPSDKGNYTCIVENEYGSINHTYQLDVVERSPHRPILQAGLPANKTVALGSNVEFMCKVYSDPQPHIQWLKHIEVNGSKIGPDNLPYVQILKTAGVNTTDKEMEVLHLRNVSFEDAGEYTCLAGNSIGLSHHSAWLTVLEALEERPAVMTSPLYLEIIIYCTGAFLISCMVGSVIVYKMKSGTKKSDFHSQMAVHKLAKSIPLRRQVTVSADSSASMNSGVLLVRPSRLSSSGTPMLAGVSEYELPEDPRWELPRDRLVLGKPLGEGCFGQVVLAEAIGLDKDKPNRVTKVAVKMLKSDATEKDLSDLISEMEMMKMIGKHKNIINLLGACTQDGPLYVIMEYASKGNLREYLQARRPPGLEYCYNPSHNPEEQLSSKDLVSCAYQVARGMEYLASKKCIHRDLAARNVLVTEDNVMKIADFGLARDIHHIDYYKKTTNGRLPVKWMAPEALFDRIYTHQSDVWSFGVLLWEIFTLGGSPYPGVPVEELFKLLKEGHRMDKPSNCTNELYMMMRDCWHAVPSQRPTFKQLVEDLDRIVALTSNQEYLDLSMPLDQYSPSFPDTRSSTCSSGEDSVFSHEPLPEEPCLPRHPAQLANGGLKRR

NCI-H716 = experiment: Antiproliferative activity against human NCI-H716 cells expressing FGFR2 assessed as reduction in cell viability measured after 72 hrs; assay type: functional, cell-based; conditions: NCI-H716, 72 h
SU.86.86 = experiment: Antiproliferative activity against human SU-86-86 cells assessed as reduction in cell viability measured after 72 hrs; assay type: functional, cell-based; conditions: SU.86.86, 72 h
EBC-1 = experiment: Antiproliferative activity against human EBC-1 cells assessed as reduction in cell viability measured after 72 hrs; assay type: functional, cell-based; conditions: EBC-1, 72 h
[10] = biological target: T2, Fibroblast growth factor receptor 1 (Homo sapiens, UniProt P11362); conditions: dose 100.0 nM, time 60.0 min
T2 sequence (P11362 22-822 limits assumed): as the sequence (P11362 22-822 V561M limits assumed) above, with M540V counted along it

NCI-H226 = experiment: Antiproliferative activity against human NCI-H226 cells assessed as reduction in cell viability measured after 72 hrs; assay type: functional, cell-based; conditions: NCI-H226, 72 h
[11] = biological target: T2, Fibroblast growth factor receptor 1; conditions: dose 1.0 nM, time 60.0 min
[12] = biological target: Fibroblast growth factor receptor 3 (Homo sapiens, UniProt P22607); experiment: Inhibition of FGFR3 (unknown origin) using Poly (Glu,Tyr) 4:1 as substrate incubated for 60 mins in presence of ATP by ELISA analysis
Sequence of Fibroblast growth factor receptor 3 (P22607 whole entry): as the sequence (P22607 whole entry, looked up) above

[13] = Stability in rat whole blood assessed as parent compound remaining measured upto 5 hrs by LC-MS/MS analysis; assay type: ADME, tissue-based
NCI-H1792 = experiment: Antiproliferative activity against human NCI-H1792 cells assessed as reduction in cell viability measured after 72 hrs; assay type: functional, cell-based; conditions: NCI-H1792, 72 h
NCI-H2228 = experiment: Antiproliferative activity against human NCI-H2228 cells assessed as reduction in cell viability measured after 72 hrs; assay type: functional, cell-based; conditions: NCI-H2228, 72 h
SNU-16 = experiment: Antiproliferative activity against human SNU-16 cells assessed as reduction in cell viability measured for 72 hrs; assay type: functional, cell-based; conditions: SNU-16, 72 h
[14] = biological target: Vascular endothelial growth factor receptor 1 (Homo sapiens) (UniProt P17948); experiment: Inhibition of VEGFR1 (unknown origin) at 1 uM using Poly (Glu,Tyr) 4:1 as substrate incubated for 60 mins in presence of ATP by ELISA analysis relative to control
[15] = GSH reactivity in PBS buffer assessed as percentage peak area ratio incubated for 24 hrs by LC-MS/MS analysis; assay type: physicochemical

In the case of `C=CC(=O)N1CCCC(n2nc3c(=O)[nH]nc(N)c3c2-c2oc3ccc(C)cc3c2C)C1` (centres undefined), the pIC50 (CAPAN-1) was < 5.00, the pIC50 [1] was 6.81 and the pIC50 (NCI-H2286) was < 5.00. For the same compound, the Tmax [2] was 15 min, the pIC50 (A549) was < 5.00 and the Activity (NCI-H1581) was “Active”. For the same compound, the pIC50 (PC-9) was < 5.00, the half-life [3] was 37.5 min and the half-life [4] was 55.9 min. The pIC50 (NCI-H1666) was < 5.00, the AUC(0-t) at 24 h [5] was 70.2 ng·h/mL and the inhibition [6] was “Active”. For the same compound, the AUC(0-t) at 24 h [7] was 115 ng·h/mL, the pIC50 (Hs746T) was < 5.00 and the inhibition [8] was “Active”. The pIC50 [9] was < 5.30, the pIC50 (NCI-H716) was 8.49 and the pIC50 (SU.86.86) was < 5.00. The pIC50 (EBC-1) was < 5.00, the inhibition [10] was 102% and the pIC50 (NCI-H226) was < 5.00. For the same compound, the inhibition [11] was 37.6%, the pIC50 [12] was 7.28 and the Stability [13] was “Stable”. The pIC50 (NCI-H1792) was < 5.00, the pIC50 (NCI-H2228) was < 5.00 and the pIC50 (SNU-16) was 8.92. The inhibition [14] was < 50% and the Activity [15] was 65%.

— ChEMBL document CHEMBL5247642, “Structural Optimization of Fibroblast Growth Factor Receptor Inhibitors for Treating Solid Tumors” (J Med Chem, 2023)
